# Where two headings read alike, the source gives them in different places.
# Assays:
# Experiment in all cases: microbe, parasite or virus in culture
# [1] = test system: Staphylococcus aureus ATCC 19636 (Smith)
# Experimental: (§1) The S. aureus strains ATCC 29213, ATCC 19636, ATCC 33591 (MRSA), BAA-1556 (MRSA USA 300) were obtained from the American Type Culture Collection (ATCC). […] The species identity was confirmed with 16S rRNA analysis.
# (§2) Two broth mediums were used, Mueller Hinton Broth and RPMI 1640+5% fetal bovine serum. Test substances were evaluated in 11-point titrations and performed in duplicate.
# (§3) The direct colony suspension method was used to prepare inoculated broth. Isolated colonies were taken from an 18-24 h culture plate. Optical density measurements (OD620nm) were used to estimate the bacterial density. […] The stock solutions were diluted by 2-fold serial titrations with their respective vehicles for a total of 11 concentrations.
# (§4) A 4 μL aliquot of each dilution was added to 196 μL of broth medium seeded with the organism in wells of a sterilized 96 well polypropylene plate (Nunc™ 249949) using aluminum foil as cover. The final bacterial count was 2 to 8×10^5 CFU/mL. […] The final test article concentration range was 32 to 0.0313 μg/mL.
# (§5) Each test substance dilution was evaluated in duplicate on one test occasion. […] Plates were incubated at 35-37° C. for 18 h. The test plates were visually examined and each well was visually scored for growth or complete inhibition of growth. The MIC value was recorded.
# [2] = test system: Staphylococcus aureus ATCC 29213; conditions: for MIC: Staphylococcus aureus; for susceptibility category (CLSI M100 interpretive criteria) / MIC, antibiotic susceptibility: ATCC 29213
# Experimental: as §1, §2, §3, §4, §5
# [3] = test system: Staphylococcus aureus ATCC 33591 (MRSA); conditions: for MIC: Staphylococcus aureus
# Experimental: as §1, §2, §3, §4, §5
# [4] = test system: Staphylococcus aureus ATCC BAA-1556 (USA300, MRSA)
# Experimental: as §1, §2, §3, §4, §5
# [5] = test system: Staphylococcus aureus VRS-2 (VanA, VRSA); set-up: MIC, antibiotic susceptibility: unit not given beside the values; conditions: for MIC: Staphylococcus aureus, VRSA; for MIC, antibiotic susceptibility: unit not given
# Experimental: as §1, §2, §3, §4, §5
# [6] = Staphylococcus aureus, ATCC19636, 18 h, read-out: MIC, antibiotic susceptibility
# [7] = ATCC29213, 18 h, read-out: MIC, antibiotic susceptibility, ATCC 29213, CLSI M7-A10, unit inferred
# [8] = ATCC33591|MRSA, 18 h, read-out: MIC, antibiotic susceptibility, ATCC 33591, CLSI M7-A10, unit inferred
# [9] = Staphylococcus aureus, ATCCBAA1556|BAA1556|MRSA|USA300, 18 h, read-out: MIC, antibiotic susceptibility
# [10] = 18 h, read-out: MIC, antibiotic susceptibility, VRS-2, CLSI M7-A10, unit inferred
Compound,"MIC [1, 6]","MIC [2, 7]","MIC [3, 8]","MIC [4, 9]","MIC [5, 10]",susceptibility category (CLSI M100 interpretive criteria) ([1]; ATCC 19636 (Smith)),susceptibility category (CLSI M100 interpretive criteria) [2],susceptibility category (CLSI M100 interpretive criteria) ([3]; ATCC 33591),susceptibility category (CLSI M100 interpretive criteria) ([4]; BAA-1556),susceptibility category (CLSI M100 interpretive criteria) ([5]; VRS-2),also measured
CO/N=C(\C(=O)N[C@@H]1C(=O)N2C(C(=O)[O-])=C(C[N+]3(C)CCCC3)CS[C@H]12)c1csc(N)n1 [Cefepime],2 µg/mL,2 to 4 µg/mL,> 64 µg/mL,16 to 64 µg/mL,> 64 µg/mL,,,,,,
CO/N=C(\C(=O)N[C@@H]1C(=O)N2C(C(=O)O)=C(CSc3nc(=O)c(=O)[nH]n3C)CS[C@H]12)c1csc(N)n1 [Ceftriaxone],4 µg/mL,4 µg/mL,> 64 µg/mL,≥ 64 µg/mL,> 64 µg/mL,,,,,,
CCC[C@@H]1C[C@@H](C(=O)N[C@@H]([C@H]2O[C@H](SC)[C@H](O)[C@@H](O)[C@H]2O)[C@H](C)Cl)N(C)C1 [Clindamycin],0.125 µg/mL,0.125 µg/mL,> 64 µg/mL,> 64 µg/mL,> 64 µg/mL,S,S,R,R,R,
CCCCCCCCCC(=O)N[C@@H](Cc1c[nH]c2ccccc12)C(=O)N[C@H](CC(N)=O)C(=O)N[C@@H](CC(=O)O)C(=O)N[C@@H]1C(=O)NCC(=O)N[C@@H](CCCN)C(=O)N[C@@H](CC(=O)O)C(=O)N[C@H](C)C(=O)N[C@@H](CC(=O)O)C(=O)NCC(=O)N[C@H](CO)C(=O)N[C@@H]([C@H](C)CC(=O)O)C(=O)N[C@@H](CC(=O)c2ccccc2N)C(=O)O[C@@H]1C [Daptomycin],0.25 µg/mL,0.125 to 0.5 µg/mL,0.5 µg/mL,0.25 µg/mL,0.25 µg/mL,S,S,S,S,S,
CC[C@H]1OC(=O)[C@H](C)[C@@H](O[C@H]2C[C@@](C)(OC)[C@@H](O)[C@H](C)O2)[C@H](C)[C@@H](O[C@@H]2O[C@H](C)C[C@H](N(C)C)[C@H]2O)[C@](C)(O)C[C@@H](C)C(=O)[C@H](C)[C@@H](O)[C@]1(C)O [Erythromycin],0.25 to 1 µg/mL,0.25 to 1 µg/mL,> 64 µg/mL,> 64 µg/mL,> 64 µg/mL,S-I,S-I,R,R,R,
C[C@@H](O)[C@H]1C(=O)N2C(C(=O)O)=C(SCCN=CN)C[C@H]12 [Imipenem],≤ 0.016 µg/mL,0.016 to 0.031 µg/mL,≥ 16 µg/mL,0.125 to 0.25 µg/mL,> 16 µg/mL,,,,,,
C[C@H]1COc2c(N3CCN(C)CC3)c(F)cc3c(=O)c(C(=O)O)cn1c23 [Levofloxacin],0.125 µg/mL,0.125 to 0.25 µg/mL,0.25 µg/mL,4 to 8 µg/mL,32 µg/mL,S,S,S,R,R,
Cc1onc(-c2ccccc2)c1C(=O)N[C@@H]1C(=O)N2[C@@H]1SC(C)(C)[C@@H]2C(=O)O [Oxacillin],0.25 µg/mL,0.25 to 0.5 µg/mL,> 64 µg/mL,64 µg/mL,> 64 µg/mL,S,S,R,R,R,
CN(C)c1cc(NC(=O)CNC(C)(C)C)c(O)c2c1C[C@H]1C[C@H]3[C@H](N(C)C)C(O)=C(C(N)=O)C(=O)[C@@]3(O)C(O)=C1C2=O [Tigecycline],0.125 to 0.25 µg/mL,,,0.25 µg/mL,,,,,,,"MIC ([2]; ATCC29213, 18 h, read-out: MIC, antibiotic susceptibility): 0.125 to 0.25 µg/mL; MIC ([3]; ATCC33591|MRSA, 18 h, read-out: MIC, antibiotic susceptibility): 0.25 to 0.5 µg/mL; MIC ([5]; 18 h, read-out: MIC, antibiotic susceptibility): 0.25 µg/mL"
Gentamicin,,,,,,S,S,S,S,R,"MIC, antibiotic susceptibility ([1]; ATCC 19636 (Smith), CLSI M7-A10, unit inferred): 0.25 µg/mL; MIC, antibiotic susceptibility ([2]; CLSI M7-A10, unit inferred): 0.25 µg/mL; MIC, antibiotic susceptibility ([3]; ATCC 33591, CLSI M7-A10, unit not given, in µg/mL): 0.25-1; MIC, antibiotic susceptibility ([4]; BAA-1556, CLSI M7-A10, unit not given, in µg/mL (unit assumed)): 0.25-0.5; MIC, antibiotic susceptibility ([5]; VRS-2, CLSI M7-A10, in µg/mL (unit assumed)): 32-64"
Teicoplanin,,,,,,,S,,,,"MIC, antibiotic susceptibility ([2]; CLSI M7-A10, unit inferred): 0.25 µg/mL"
Trimethoprim/sulfamethoxazole,,,,,,S,S,S,S,R,"MIC, antibiotic susceptibility ([5]; VRS-2, CLSI M7-A10): >8/152"

# Further lines, with some results ahead:
"MIC [1, 6]","MIC [2, 7]","MIC [3, 8]","MIC [4, 9]","MIC [5, 10]",Compound,susceptibility category (CLSI M100 interpretive criteria) ([1]; ATCC 19636 (Smith)),susceptibility category (CLSI M100 interpretive criteria) [2],susceptibility category (CLSI M100 interpretive criteria) ([3]; ATCC 33591),susceptibility category (CLSI M100 interpretive criteria) ([4]; BAA-1556),susceptibility category (CLSI M100 interpretive criteria) ([5]; VRS-2),also measured
2 to 4 µg/mL,2 to 4 µg/mL,0.5 to 1 µg/mL,2 µg/mL,2 µg/mL,CC(=O)NC[C@H]1CN(c2ccc(N3CCOCC3)c(F)c2)C(=O)O1 [Linezolid],S,S,S,S,S,"MIC ([1]; ATCC 19636 (Smith), MHB): 2 µg/mL; MIC ([2]; ATCC29213, ATCC 29213, MHB): 4 µg/mL; MIC ([2]; ATCC29213, ATCC 29213, RPMI + 5% FBS): 2 µg/mL; MIC ([3]; ATCC 33591, MHB): 2 µg/mL; MIC ([3]; ATCC 33591, RPMI + 5% FBS): 1 µg/mL; MIC ([4]; ATCC BAA-1556, MHB): 2 µg/mL; MIC ([5]; VRS-2, MHB): 2 µg/mL; MIC ([5]; VRS-2, RPMI + 5% FBS): 1 µg/mL"
,0.0625 µg/mL,,,,C[C@@H](O)[C@H]1C(=O)N2C(C(=O)O)=C(S[C@@H]3CN[C@H](C(=O)N(C)C)C3)[C@H](C)[C@H]12 [Meropenem],,,,,,
1 µg/mL,0.25 to 2 µg/mL,1 to 2 µg/mL,> 64 µg/mL,1 to 2 µg/mL,C/C(=C\C(=O)OCCCCCCCCC(=O)O)C[C@@H]1OC[C@H](C[C@@H]2O[C@H]2[C@@H](C)[C@H](C)O)[C@@H](O)[C@H]1O [Mupirocin],,,,,,
